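Test compounds were applied to cells in 96-well plates for 48 hours at 5 doses. TGI: concentration producing complete growth inhibition.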
What was measured:
Assay in all cases: NCI anticancer screen, dose series, 48 h
SF-539 CNS = system: SF-539 CNS
UACC-257 melanoma = system: UACC-257 melanoma
HL-60(TB) leukemia = system: HL-60(TB) leukemia
SK-MEL-2 melanoma = system: SK-MEL-2 melanoma
BT-549 breast = system: BT-549 breast
SK-OV-3 ovarian = system: SK-OV-3 ovarian
OVCAR-8 ovarian = system: OVCAR-8 ovarian
MALME-3M melanoma = system: MALME-3M melanoma
SF-268 CNS = system: SF-268 CNS
EKVX NSCLC = system: EKVX NSCLC
NCI/ADR-RES ovarian = system: NCI/ADR-RES ovarian
UO-31 renal = system: UO-31 renal
OVCAR-5 ovarian = system: OVCAR-5 ovarian
DU-145 prostate = system: DU-145 prostate
UACC-62 melanoma = system: UACC-62 melanoma
T-47D breast = system: T-47D breast
A549 NSCLC = system: A549 NSCLC
LOX IMVI melanoma = system: LOX IMVI melanoma
MDA-MB-231 breast = system: MDA-MB-231 breast
HCC-2998 colon = system: HCC-2998 colon

Structure (SMILES)	TGI (SF-539 CNS) [µM]	TGI (UACC-257 melanoma) [µM]	TGI (HL-60(TB) leukemia) [µM]	TGI (SK-MEL-2 melanoma) [µM]	TGI (BT-549 breast) [µM]	TGI (SK-OV-3 ovarian) [µM]	TGI (OVCAR-8 ovarian) [µM]	TGI (MALME-3M melanoma) [µM]	TGI (SF-268 CNS) [µM]	TGI (EKVX NSCLC) [µM]	TGI (NCI/ADR-RES ovarian) [µM]	TGI (UO-31 renal) [µM]	TGI (OVCAR-5 ovarian) [µM]	TGI (DU-145 prostate) [µM]	TGI (UACC-62 melanoma) [µM]	TGI (T-47D breast) [µM]	TGI (A549 NSCLC) [µM]	TGI (LOX IMVI melanoma) [µM]	TGI (MDA-MB-231 breast) [µM]	TGI (HCC-2998 colon) [µM]
Cc1ccc2[nH]c3[nH]c(=O)[nH]c(=O)c3c2c1	> 100	> 100	> 100	> 100	> 100	> 100	> 100	> 100	> 100	> 100	> 100	> 100	> 100	> 100	> 100	> 100	> 100	> 100		
CC(C)[Si](OC1=C(C(=O)N(C)c2ccccc2Cl)CCC1)(C(C)C)C(C)C	39.5	43.4			29.8	32.8	31	34.6	33.4	31.1	30.4	29.4	21.6	44.3		47.1	32.1	33.7	30.9	
O=C1c2ccccc2C(=O)N1CCCCCCNOCCCN1C(=O)c2ccccc2C1=O		86		47.8	85.4	> 100	> 100	> 100	> 100	> 100	70	> 100	> 100	> 100	50.3	65	> 100	> 100	> 100	> 100
OCC1OC(n2nc(-c3ccccc3)nc2-c2cnccn2)C(O)C1O (centres undefined)	> 100	> 100	> 100		> 100	> 100	> 100		> 100	> 100	> 100	> 100	> 100	> 100	> 100	> 100	> 100	> 100	> 100	> 100
COc1ccc(N[C@H](CS(=O)c2ccc(C)cc2)C(F)(F)C(F)(F)F)cc1 (some centres undefined)	> 100	> 100	> 100		> 100	> 100	> 100	> 100	> 100	> 100	> 100	> 100	> 100	> 100	> 100	> 100	> 100	> 100		> 100
CCCCNC(=O)Nc1c(C(N)=O)c2n(c1C(=O)OCC)CCCCC2	> 100	> 100	> 100	> 100	> 100	> 100	> 100		> 100	> 100	> 100	> 100		> 100	> 100	> 100		> 100	58.4	> 100
COC(=NCCC1=CCCCC1)OC		> 100		> 100	> 100	> 100	> 100	> 100	> 100	> 100	> 100	> 100	> 100	> 100	> 100	> 100	> 100		> 100	39.9
COc1ccc(C(C2C(=O)N(C)C(=O)N(C)C2=O)C(F)(F)C(=O)N(C)C)cc1 (centres undefined)	> 100	> 100		> 100	> 100	> 100	> 100	> 100	> 100	> 100	> 100	> 100	> 100	> 100	> 100	> 100	> 100	> 100	> 100	> 100
COP1(=O)NCc2ncccc2O1 (centres undefined)	> 100	> 100		> 100	> 100		> 100			> 100	> 100	> 100	> 100	> 100	> 100	> 100	> 100	> 100	> 100	> 100
CCCCCC(=O)OCC1(CO)C/C(=C\CC(C(C)C)C(C)C)C(=O)O1 (centres undefined)		> 100		> 100	> 100	> 100	76.2	> 100	> 100	> 100	> 100	> 100	> 100	> 100	> 100	> 100	> 100	70	> 100	> 100
Cc1ccc(-n2c(Cn3nnc(-c4cccnc4)n3)nn(C3OC(COC(=O)c4ccccc4)C(OC(=O)c4ccccc4)C3OC(=O)c3ccccc3)c2=S)cc1 (centres undefined)	> 100	> 100		> 100	> 100	> 100	> 100	> 100	> 100	> 100	> 100	> 100	> 100	> 100	> 100	> 100	> 100	> 100	> 100	> 100
Cc1c(C(=O)O)c2cc3ccccc3cc2c(=O)n1C	> 10	> 10	> 10	> 10	> 10	> 10	> 10	> 10	> 10	> 10	> 10	> 10	> 10		> 10	> 10	> 10	> 10	> 10	> 10
CC(C)N=C(NC#N)NS(=O)(=O)c1cnccc1Nc1ccc(Cl)cc1		> 100		> 100	> 100	> 100	> 100	> 100	> 100	> 100	> 100	> 100	> 100	> 100	> 100	> 100	> 100		> 100	> 100
COc1ccc2c(c1)nc1n2C(c2c(F)cccc2Cl)SC1 (centres undefined)	16.1	> 43.2		> 27.7	> 31.3	> 38.1	51	5.43	90.6	> 100	4.81	> 100	> 100	> 29.3	> 100	> 52.5	> 50.6	> 61.6	27.9	> 39.8
CN1CCN(C(=S)N(C(=O)c2ccco2)c2ccccc2)CC1		> 100	> 100	> 100	> 100		> 100	> 100	> 100			> 100	> 100	> 100	> 100	> 100	> 100	> 100	> 100	> 100
C=C1CC(Cn2cc(C)c(=O)[nH]c2=O)(c2ccc(-c3ccccc3)cc2)OC1=O (centres undefined)	8.38	5.75		4.19	3.08	17.7	4.98	6.81	5.62	22.1	13.8	11.5	23.3	6.42	3.77	5.51	23	3.49	5.16	5.23
[N-]=[N+]=Nc1c([N+](=O)[O-])c(Cl)nc2ccccc12	9.74	3.45		5.07	3.11	27.7	3.98	3.41	11.7	7.45	6.3	1.58	5.63	5.35	9.07	4.82	35.2	3.07	3.65	4.17
C=C(C)[C@@]1(O)CCC[C@H]1NC(=O)OC(C)(C)C		> 100		> 100	> 100	> 100	> 100	> 100	> 100	> 100	> 100	> 100	> 100	> 100		> 100	> 100	> 100	> 100	> 100
Cc1ccc(CS(=O)(=O)C/N=c2\sc3ccccc3nc2/C=C(\O)c2ccc(Cl)cc2)cc1	> 10	> 10			> 10	> 10	> 10	> 10	> 10		> 10		> 10	> 10	> 10	> 10	> 10	> 10	> 10	> 10
Cc1c[nH]c(C(=O)O)c1-c1ccc2c(-c3ccccc3)nc3ccccc3n12	49.3	> 100		55.1	> 100	> 100	> 100		> 100	> 100	48.1	> 100	> 100	> 100	42.5	> 100	> 100	63	95	56.9

From PubChem BioAssay (NCI)
